Where two headings read alike, the source gives them in different places.

For data set [1], the system named is primary human tumors. The experiment in a line: Ex vivo activity in primary human tumors. It is filed as cell-based. To be noted: tumors from patients.
The subject of data set [2] is RAD51. The experiment in a line: Pre-clinical models, expression of DNA repair genes. The text has this: Following chemotherapy and/or radiation treatment, some patient's tumors may turn on certain genes as a strategy by the tumor to adapt to the therapy and become resistant to cell death. One example of a genetic change that occurs in many cancers is the activation of the DNA repair gene RAD51. In response to treatment with DNA-damaging chemotherapy or radiation, tumors will often turn on DNA repair genes (including RAD51) as an adaptive strategy to help the tumor repair the DNA damage done by these agents.

Data set [3] deals with lung, colon, prostate, pancreatic and brain tumors. The experiment in a line: Mouse tumor models. It is filed as in vivo.
Data set [4] is described as follows: Site of absorption of abexinostat.
A short description of data set [5]: Incidence of thrombocytopenia by dosing frequency. It is filed as in vivo, human. To be noted: twice a day dosing compared to three times a day dosing. As for the experimental part: In some embodiments, abexinostat (or a salt thereof; e.g., abexinostat HCl) is administered once per day during a cycle of abexinostat (or a salt thereof; e.g., abexinostat HCl). In some embodiments, abexinostat (or a salt thereof; e.g., abexinostat HCl) is administered twice per day during a cycle of abexinostat (or a salt thereof; e.g., abexinostat HCl). In some embodiments, abexinostat (or a salt thereof; e.g., abexinostat HCl) is administered three times per day during a cycle of abexinostat (or a salt thereof; e.g., abexinostat HCl).
In certain instances, thrombocytopenia is a side effect observed in humans that receive treatment with HDAC inhibitor compounds. Grade 4 thrombocytopenia typically includes instances when the human has a platelet count less than 25,000 per […]. Thrombocytopenia may be ameliorated or avoided by lowering the daily dose of abexinostat. In some embodiment, a method disclosed herein further comprises an abexinostat (or a salt thereof; e.g., abexinostat HCl) drug holiday following an abexinostat (or a salt thereof; e.g., abexinostat HCl) cycle.

Data set [6] can be described thus: Clinical pharmacokinetics of abexinostat, IV and oral dosing. As to conditions: human, in vivo; for bioavailability: humans; for AUC(0-inf): humans with cancer, solution form, read-out: Systemic exposure measured as AUC0-∞. How it is done: In clinical trials involving humans with cancer, abexinostat in solution form was administered at 2 mg/kg as a single oral dose and as multiple 2-hour IV infusion doses.

The nature of data set [7]: Pharmacokinetics in laboratory animals, fasted state versus fed state. It is filed as in vivo.
Data set [8] relates to tumor cell lines. The experiment in a line: In vitro activity against tumor cell lines. It is filed as cell-based.

A word on the bioavailability: it is dose-corrected exposure relative to a reference, in per cent. Lower therefore signals little systemic uptake. For `CN(C)Cc1c(C(=O)NCCOc2ccc(C(=O)NO)cc2)oc2ccccc12` [abexinostat, N-hydroxy-4-{2-[3-(N,N-dimethylaminomethyl)benzofuran-2-ylcarbonylamino]ethoxy}-benzamide], the “activity in primary human tumors” value in data set [1] is “active in primary human tumors from patients with colon, ovarian, lung and many hematological cancers”. Also, the “effect on RAD51 (and other DNA repair genes)” value in data set [2] is “able to turn off RAD51”. Also, the “efficacy in mouse tumor models” value in data set [3] is “efficacious in mouse models of lung, colon, prostate, pancreatic and brain tumors”. Moreover, in data set [4], the site of absorption result is listed as “preferentially absorbed in the intestines”. The incidences of thrombocytopenia result in data set [5] is “reduces the incidences of thrombocytopenia”. Moreover, the bioavailability in data set [6] (2 mg/kg, administered as immediate release capsules or an oral solution) is about 27%; in data set [6] (from AUC0-∞ of oral versus IV dosing at 2 mg/kg), about 27%. Also, the AUC(0-inf) in data set [6] (2 mg/kg, multiple 2-hour IV infusion doses) is 5.9 µM·h; in data set [6] (2 mg/kg, single oral dose), 1.45 µM·h. In data set [7], the “pharmacokinetics, fasted state versus fed state” value was “difference in pharmacokinetics was observed”. For the same molecule, the “activity against tumor cell lines” value in data set [8] is listed as “active against many tumor cell lines”.

The values are drawn from patent US20150335609A1, “COMBINATIONS OF HISTONE DEACETYLASE INHIBITOR AND PAZOPANIB AND USES THEREOF” (Pharmacyclics, Inc., priority 2012, published 2015).
